In patent US20010006697A1, “Composition and method for producing low cholesterol eggs” (priority 1997, published 2001):
Where “and” joins values, the source holds several entries; their conditions need not be identical. Identical values can stand only once. Like-named read-outs stand apart in the source and are kept apart here. Marks after values point to notes of the source that are not given here.

Legend:
laying hens [1] = test: Egg production, egg weights and yolk weights of statin-treated laying hens; format: in vivo, White Leghorn hens
Experimental: Hens were treated as described in Example 1. Egg yolk was weighed as outlined in Example 2.

laying hens [2] = conditions: 0.03% or 0.06% of diet; day 35
laying hens [3] = conditions: 0.03% or 0.06% of diet; day 35; remark: listed apart in the source
[4] = system: microsomal triglyceride transport protein (MTP) large subunit mRNA; conditions: normalized by 18S rRNA; day 35
plasma VLDL particles [5] = conditions: day 35
plasma VLDL particles [6] = conditions: day 35; remark: listed apart in the source
[7] = Liver weight of statin-treated laying hens; conditions: day 35
laying hens [8] = test: Liver cholesterol content; conditions: day 35
[9] = system: apolipoprotein B (apoB) mRNA; test: Northern blot of liver mRNA: apoB; format: in vivo, White Leghorn hens; conditions: normalized by 18S rRNA; day 35
Text: Endocrinol. […] Endocrinol.

laying hens [10] = test: Yolk cholesterol contents of eggs from statin-treated laying hens; format: in vivo, White Leghorn hens
Experimental: Agric. […] Hens were treated as described in Example 1. […] The eggs were hard-cooked, and the yolks were separated, weighed, and crumbled. […] Agric. […] Egg homogenate filtrates were analyzed for cholesterol as described in Rudel, L. L. and Morris, M. D., J. Lipid Res. 14:364-366 (1973).

[11] = 0.03% of diet, Overall (weeks 1-5)
[12] = 0.06% of diet, Overall (weeks 1-5)
[13] = 0.06% of diet, week 5 (maximal reduction for simvastatin, lovastatin)

Egg weight, g (laying hens [1]; [11]): 65.0 ± 1.4^a (155) g
Hen-day egg production, % (laying hens [1]; [11]): 88.6 ± 2.4^a (155) %
Yolk weight, g (laying hens [1]; [11]): 17.7 ± 0.2^a (25) g
Egg weight, g (laying hens [1]; 0.03% of diet, Week 1): 64.9 ± 0.7^a g
Hen-day egg production, % (laying hens [1]; 0.03% of diet, Week 1): 91.4 ± 1.2^a %
Yolk weight, g (laying hens [1]; 0.03% of diet, Week 1): 17.9 ± 0.7^a g
Egg weight, g (laying hens [1]; 0.03% of diet, Week 2): 64.3 ± 0.8^a,b g
Hen-day egg production, % (laying hens [1]; 0.03% of diet, Week 2): 88.6 ± 1.0^a %
Yolk weight, g (laying hens [1]; 0.03% of diet, Week 2): 17.4 ± 0.8^a g
Egg weight, g (laying hens [1]; 0.03% of diet, Week 3): 65.1 ± 0.7^a g
Hen-day egg production, % (laying hens [1]; 0.03% of diet, Week 3): 85.7 ± 1.0^a %
Yolk weight, g (laying hens [1]; 0.03% of diet, Week 3): 17.8 ± 0.5^a g
Egg weight, g (laying hens [1]; 0.03% of diet, Week 4): 65.8 ± 0.6^a g
Hen-day egg production, % (laying hens [1]; 0.03% of diet, Week 4): 88.6 ± 1.8^a %
Yolk weight, g (laying hens [1]; 0.03% of diet, Week 4): 17.8 ± 0.4^a g
Egg weight, g (laying hens [1]; 0.03% of diet, Week 5): 64.7 ± 0.7^a g
Hen-day egg production, % (laying hens [1]; 0.03% of diet, Week 5): 88.6 ± 1.0^a %
Yolk weight, g (laying hens [1]; 0.03% of diet, Week 5): 17.8 ± 0.5^a g
effect on production variables (egg production, egg weight, yolk weight) (laying hens [1]; 0.03% or 0.06% of diet, P>0.05): did not affect
Egg weight, g (laying hens [1]; [12]): 63.8 ± 1.8^a (155) g
Hen-day egg production, % (laying hens [1]; [12]): 88.6 ± 2.9^a (155) %
Yolk weight, g (laying hens [1]; [12]): 17.4 ± 0.3^a (25) g
Egg weight, g (laying hens [1]; 0.06% of diet, Week 1): 62.6 ± 1.9^a g
Hen-day egg production, % (laying hens [1]; 0.06% of diet, Week 1): 88.6 ± 1.0^a,b %
Yolk weight, g (laying hens [1]; 0.06% of diet, Week 1): 17.4 ± 1.0^a g
Egg weight, g (laying hens [1]; 0.06% of diet, Week 2): 64.0 ± 0.7^a,b g
Hen-day egg production, % (laying hens [1]; 0.06% of diet, Week 2): 85.7 ± 1.5^a,b %
Yolk weight, g (laying hens [1]; 0.06% of diet, Week 2): 17.3 ± 0.7^a g
Egg weight, g (laying hens [1]; 0.06% of diet, Week 3): 65.3 ± 1.1^a g
Hen-day egg production, % (laying hens [1]; 0.06% of diet, Week 3): 88.6 ± 1.0^a %
Yolk weight, g (laying hens [1]; 0.06% of diet, Week 3): 17.7 ± 0.6^a g
Egg weight, g (laying hens [1]; 0.06% of diet, Week 4): 63.3 ± 0.8^b,c g
Hen-day egg production, % (laying hens [1]; 0.06% of diet, Week 4): 88.6 ± 1.8^a %
Yolk weight, g (laying hens [1]; 0.06% of diet, Week 4): 17.2 ± 0.9^a,b g
Egg weight, g (laying hens [1]; 0.06% of diet, Week 5): 62.9 ± 0.8^a,b g
Hen-day egg production, % (laying hens [1]; 0.06% of diet, Week 5): 91.4 ± 1.2^a %
Yolk weight, g (laying hens [1]; 0.06% of diet, Week 5): 17.3 ± 0.7^a g
Liver Weight g ([7]; 0.03% of diet): 31.4 ± 1.4^b g
Liver Weight g/100 g BW ([7]; 0.03% of diet): 1.81 ± 0.09^a,b g/100 g BW
Liver Weight g ([7]; 0.06% of diet): 28.8 ± 0.9^b,c g
Liver Weight g/100 g BW ([7]; 0.06% of diet): 1.76 ± 0.05^b g/100 g BW
SMILES: CC[C@H](C)C(=O)O[C@H]1C[C@@H](C)C=C2C=C[C@H](C)[C@H](CC[C@@H]3C[C@@H](O)CC(=O)O3)[C@H]21 [Lovastatin]
effect on plasma total cholesterol (plasma lipid variables) (laying hens [2]): did not significantly affect
effect on plasma triglycerides (plasma lipid variables) (laying hens [3]): did not significantly affect
hepatic MTP large subunit mRNA, linear contrasts (P≦0.05) [4]: lovastatin>atorvastatin
Plasma VLDL particle Diameter nm (plasma VLDL particles [5]; 0.03% of diet): 35.5 ± 0.1^a,b nm
Plasma VLDL particle Diameter nm (plasma VLDL particles [5]; 0.06% of diet): 34.8 ± 0.1^a,b nm
Plasma VLDL composition: EC (esterified cholesterol) (plasma VLDL particles [6]; 0.03% of diet): 0.06 ± 0.01^a,b %
Plasma VLDL composition: PC (phosphatidylcholine) (plasma VLDL particles [6]; 0.03% of diet): 11.99 ± 0.18^b %
Plasma VLDL composition: PE (phosphatidylethanolamine) (plasma VLDL particles [6]; 0.03% of diet): 3.76 ± 0.33^a %
Plasma VLDL composition: Protein (plasma VLDL particles [6]; 0.03% of diet): 17.37 ± 0.70^a %
Plasma VLDL composition: SM (sphingomyelin) (plasma VLDL particles [6]; 0.03% of diet): 1.08 ± 0.31^a %
Plasma VLDL composition: TG (triglyceride) (plasma VLDL particles [6]; 0.03% of diet): 62.78 ± 1.01^a %
Plasma VLDL composition: UC (unesterified cholesterol) (plasma VLDL particles [6]; 0.03% of diet): 2.94 ± 0.11^a %
Plasma VLDL composition: EC (esterified cholesterol) (plasma VLDL particles [6]; 0.06% of diet): 0.08 ± 0.02^a,b %
Plasma VLDL composition: PC (phosphatidylcholine) (plasma VLDL particles [6]; 0.06% of diet): 12.07 ± 0.82^b %
Plasma VLDL composition: PE (phosphatidylethanolamine) (plasma VLDL particles [6]; 0.06% of diet): 3.46 ± 0.93^a %
Plasma VLDL composition: Protein (plasma VLDL particles [6]; 0.06% of diet): 19.96 ± 1.32^a %
Plasma VLDL composition: SM (sphingomyelin) (plasma VLDL particles [6]; 0.06% of diet): 0.66 ± 0.23^a %
Plasma VLDL composition: TG (triglyceride) (plasma VLDL particles [6]; 0.06% of diet): 60.74 ± 1.22^a %
Plasma VLDL composition: UC (unesterified cholesterol) (plasma VLDL particles [6]; 0.06% of diet): 3.03 ± 0.34^a %
Liver Cholesterol mg/g liver (laying hens [8]; 0.03% of diet): 3.0 ± 0.05^b,c mg/g liver
Liver Cholesterol mg/liver (laying hens [8]; 0.03% of diet): 95.7 ± 3.3^a mg/liver
Liver Cholesterol mg/g liver (laying hens [8]; 0.06% of diet): 3.1 ± 0.07^b mg/g liver
Liver Cholesterol mg/liver (laying hens [8]; 0.06% of diet): 90.2 ± 3.6^a mg/liver
hepatic apoB mRNA, linear contrasts (P≦0.05) [9]: control>lovastatin
Yolk cholesterol content, mg cholesterol/g yolk (laying hens [10]; 0.03% of diet, Week 0): 11.0 ± 0.2^a mg cholesterol/g yolk
Yolk cholesterol content, mg cholesterol/yolk (laying hens [10]; 0.03% of diet, Week 0): 195.7 ± 6.8^a mg cholesterol/yolk
Yolk cholesterol content, mg cholesterol/g yolk (laying hens [10]; 0.03% of diet, Week 1): 10.7 ± 0.2^b mg cholesterol/g yolk
Yolk cholesterol content, mg cholesterol/yolk (laying hens [10]; 0.03% of diet, Week 1): 192.2 ± 6.5^a mg cholesterol/yolk
Yolk cholesterol content, mg cholesterol/g yolk (laying hens [10]; 0.03% of diet, Week 2): 11.1 ± 0.2^a,b mg cholesterol/g yolk
Yolk cholesterol content, mg cholesterol/yolk (laying hens [10]; 0.03% of diet, Week 2): 193.8 ± 6.6^a mg cholesterol/yolk
Yolk cholesterol content, mg cholesterol/g yolk (laying hens [10]; 0.03% of diet, Week 3): 10.8 ± 0.2^b mg cholesterol/g yolk
Yolk cholesterol content, mg cholesterol/yolk (laying hens [10]; 0.03% of diet, Week 3): 192.3 ± 5.1^a mg cholesterol/yolk
Yolk cholesterol content, mg cholesterol/g yolk (laying hens [10]; 0.03% of diet, Week 4): 10.9 ± 0.2^a,b mg cholesterol/g yolk
Yolk cholesterol content, mg cholesterol/yolk (laying hens [10]; 0.03% of diet, Week 4): 193.9 ± 4.2^a mg cholesterol/yolk
Yolk cholesterol content, mg cholesterol/g yolk (laying hens [10]; 0.03% of diet, Week 5): 10.8 ± 0.1^b mg cholesterol/g yolk
Yolk cholesterol content, mg cholesterol/yolk (laying hens [10]; 0.03% of diet, Week 5): 193.6 ± 4.0^a,b mg cholesterol/yolk
Yolk cholesterol content, mg cholesterol/g yolk (laying hens [10]; 0.06% of diet, Week 0): 10.9 ± 0.1^a mg cholesterol/g yolk
Yolk cholesterol content, mg cholesterol/yolk (laying hens [10]; 0.06% of diet, Week 0): 197.8 ± 4.3^a mg cholesterol/yolk
Yolk cholesterol content, mg cholesterol/g yolk (laying hens [10]; 0.06% of diet, Week 1): 10.7 ± 0.1^b mg cholesterol/g yolk
Yolk cholesterol content, mg cholesterol/yolk (laying hens [10]; 0.06% of diet, Week 1): 185.5 ± 8.4^a,b mg cholesterol/yolk
Yolk cholesterol content, mg cholesterol/g yolk (laying hens [10]; 0.06% of diet, Week 2): 10.8 ± 0.1^b,c mg cholesterol/g yolk
Yolk cholesterol content, mg cholesterol/g yolk (laying hens [10]; 0.06% of diet, Week 3): 10.5 ± 0.1^b,c mg cholesterol/g yolk
Yolk cholesterol content, mg cholesterol/yolk (laying hens [10]; 0.06% of diet, Week 3): 184.6 ± 5.1^a,b mg cholesterol/yolk
Yolk cholesterol content, mg cholesterol/g yolk (laying hens [10]; 0.06% of diet, Week 4): 10.9 ± 0.2^a,b mg cholesterol/g yolk
Yolk cholesterol content, mg cholesterol/yolk (laying hens [10]; 0.06% of diet, Week 4): 187.1 ± 7.2^a,b mg cholesterol/yolk
Yolk cholesterol content, mg cholesterol/g yolk (laying hens [10]; 0.06% of diet, Week 5): 10.8 mg cholesterol/g yolk and 10.8 ± 0.1^b mg cholesterol/g yolk
Yolk cholesterol content, mg cholesterol/yolk (laying hens [10]; 0.06% of diet, Week 5): 186.9 mg cholesterol/yolk and 186.9 ± 4.3^a,b mg cholesterol/yolk
yolk cholesterol reduction from control on a per yolk (egg) basis (laying hens [10]; [13]): 7%
yolk cholesterol reduction from control per g of yolk (mg/g basis) (laying hens [10]; [13]): 7%
